Results published in patent publication US9102648B1, “Bioavailable diacylhydrazine ligands for modulating the expression of exogenous genes via an ecdysone receptor complex” (Intrexon Corporation, priority 2003, dated 2015).
pEC50: −log10 of the molar value. Read-outs that look alike come from different tables or passages of the source.

Assays:
[1] = biological target: GAL4 DBD-CfEcR(DEF)/VP16AD-MmRXRE (Choristoneura fumiferana, UniProt O77240); experiment: 13B3 Assay (CHO stable cell line, luciferase reporter); conditions: for Fold Induction, 13B3 Assay, 3.3 uM: 3.3 uM ligand; for Fold Induction, 13B3 Assay, 3.3 uM / Fold Induction, 13B3 Assay, 33 uM: RLU ligand treated / RLU DMSO treated cells; for 13B3 assay Rel Max FI: maximum fold induction at any concentration relative to that of GS-E ligand, CHO 13B3 cells; for Fold Induction, 13B3 Assay, 33 uM: 33 uM ligand; for fold induction at 33 µM: read-out: Fold Induction, 13B3 Assay, 33 uM; for fold induction at 3.3 µM: read-out: Fold Induction, 13B3 Assay, 3.3 uM
In short: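 Ligands dosed at 8 levels from 33 to 0.01 μM (DMSO stocks diluted 300-fold) onto the 13B3 CHO line carrying GAL4-DBD/CfEcR-DEF, VP16/MmRXR-DE and a GAL4-responsive luciferase gene.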

[2] = biological target: T1, Bombyx mori EcR (VP16 fusion, CVBE switch construct) (Bombyx mori, UniProt P49881); experiment: Z3 Assay (HEK-293 cells with CVBE and 6XEcRE LacZ, β-galactosidase reporter); conditions: for Fold Induction, Z3 Assay, 3.3 uM: 3.3 uM ligand; for Fold Induction, Z3 Assay, 3.3 uM / Fold Induction, Z3 Assay, 33 uM: ligand treated / DMSO treated cells; for Z3 assay Rel Max FI: maximum fold induction at any concentration relative to that of GS-E ligand; for Fold Induction, Z3 Assay, 33 uM: 33 uM ligand; for fold induction at 33 µM: HEK293, read-out: Fold Induction, Z3 Assay, 33 uM; for fold induction at 3.3 µM: HEK293, read-out: Fold Induction, Z3 Assay, 3.3 uM
T1 sequence (P49881 86-606): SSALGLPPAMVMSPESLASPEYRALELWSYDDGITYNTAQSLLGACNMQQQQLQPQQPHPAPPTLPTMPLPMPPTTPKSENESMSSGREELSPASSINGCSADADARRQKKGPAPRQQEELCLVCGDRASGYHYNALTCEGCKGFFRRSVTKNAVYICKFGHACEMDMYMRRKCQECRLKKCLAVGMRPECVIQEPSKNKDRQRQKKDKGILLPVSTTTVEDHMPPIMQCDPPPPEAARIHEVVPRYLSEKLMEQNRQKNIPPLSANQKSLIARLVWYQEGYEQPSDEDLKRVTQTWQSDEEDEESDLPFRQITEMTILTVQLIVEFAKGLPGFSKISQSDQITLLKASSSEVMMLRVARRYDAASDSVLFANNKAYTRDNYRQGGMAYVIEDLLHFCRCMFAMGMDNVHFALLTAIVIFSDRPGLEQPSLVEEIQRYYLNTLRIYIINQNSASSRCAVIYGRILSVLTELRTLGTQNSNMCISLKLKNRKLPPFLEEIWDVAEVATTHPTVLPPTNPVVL
T1 sequence (P19793 1-462 partner): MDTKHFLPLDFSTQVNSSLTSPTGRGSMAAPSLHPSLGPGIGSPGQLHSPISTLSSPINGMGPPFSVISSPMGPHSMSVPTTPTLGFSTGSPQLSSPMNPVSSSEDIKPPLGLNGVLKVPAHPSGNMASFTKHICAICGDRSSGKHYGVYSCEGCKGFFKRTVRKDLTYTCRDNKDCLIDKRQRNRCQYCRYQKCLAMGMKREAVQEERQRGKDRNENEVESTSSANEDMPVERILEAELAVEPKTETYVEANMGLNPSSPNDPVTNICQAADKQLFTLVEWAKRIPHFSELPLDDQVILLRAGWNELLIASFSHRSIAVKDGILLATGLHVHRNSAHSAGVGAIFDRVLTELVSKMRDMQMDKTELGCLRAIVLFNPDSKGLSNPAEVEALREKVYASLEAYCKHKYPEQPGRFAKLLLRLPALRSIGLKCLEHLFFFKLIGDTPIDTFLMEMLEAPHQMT

[3] = read-out: 13B3 EC50, CHO 13B3 stable cell line, luciferase reporter, 48 h, average of two wells
[4] = read-out: Z3 assay EC50, HEK-293 Z3 cells, β-galactosidase reporter, average of two wells

Row | SMILES | Fold Induction, 13B3 Assay, 3.3 uM ([1]; average of two wells) | 13B3 assay Rel Max FI [1] | pEC50 [1, 3] | Fold Induction, Z3 Assay, 3.3 uM ([2]; average of two wells) | Z3 assay Rel Max FI ([2]; HEK-293 Z3 cells) | pEC50 [2, 4] | Fold Induction, 13B3 Assay, 33 uM ([1]; average of two wells) | Fold Induction, Z3 Assay, 33 uM ([2]; average of two wells) | fold induction at 33 µM [1] | fold induction at 33 µM [2] | pEC50 [1] | fold induction at 3.3 µM [1] | pEC50 [2] | fold induction at 3.3 µM [2]
1 | Cc1c(C(=O)NN(C(=O)c2cc(Cl)nc(Cl)c2)C(C)(C)C)ccc2c1OCCO2 [RG-115536] | 483 | 0.734 | 6.11 | 488 | 0.950 | 6.90 |  |  |  |  |  |  |  | 
2 | Cc1c(C(=O)NN(C(=O)c2cccc(F)c2)C(C)(C)C)ccc2c1OCCO2 [RG-115350] | 450 | 0.711 | 6.10 | 499 | 0.935 | 6.51 |  |  |  |  |  |  |  | 
3 | Cc1cc(C)cc(C(=O)N(NC(=O)c2cccc(I)c2C)C(C)(C)C)c1 [RG-101734] | 918 |  |  | 987 | 0.988 | 6.84 | 442 | 951 |  |  |  |  |  | 
4 | COc1ccc(C(=O)NN(C(=O)c2cc(Cl)cc(Cl)c2)C(C)(C)C)cc1 [RG-101376] | 25656 | 0.654 | 5.87 | 1293 | 0.777 | 6.27 | 7393 | 415 |  |  |  |  |  | 
5 | CCc1c(OC)cccc1C(=O)NN(C(=O)c1ccc(F)cc1)C(C)(C)C [RG-100812] |  |  |  | 1587 | 0.954 | 6.04 | 202 | 399 |  |  |  |  |  | 
6 | COc1cccc(C(=O)NN(C(=O)c2cc(C)cc(C)c2)C(C)(C)C)c1I [RG-101528] | 259 | 1.111 | 4.53 | 748 | 0.923 | 5.98 | 3027 | 1515 |  |  |  |  |  | 
7 | CC(C)(C)N(NC(=O)c1ccc(Br)cc1)C(=O)c1cc(Cl)cc(Cl)c1 [RG-101759] | 623 | 0.336 | 6.06 | 796 | 0.639 | 6.48 | 137 | 158 |  |  |  |  |  | 
8 | CCc1c(OC)cccc1C(=O)NN(C(=O)c1cc(C)cc(C=NO)c1)C(C)(C)C [RG-115625] | 3 | 0.931 | 4.60 | 265 | 0.950 | 6.41 | 715 | 1559 |  |  |  |  |  | 
9 | CCc1c(OC)cccc1C(=O)NN(C(=O)c1cc(C)cc(C)c1)C(C)(C)COC(C)=O [RG-115310] | 2 | 0.676 | < 4.30 | 199 | 0.781 | 5.58 | 3044 | 960 |  |  |  |  |  | 
10 | Cc1cc(C)cc(C(=O)N(NC(=O)c2cccc(OC(C)C)c2C)C(C)(C)C)c1 [RG-101670] | 2297 | 0.874 | 6.19 | 1190 | 0.853 | 6.33 | 738 | 929 |  |  |  |  |  | 
11 | CCc1c(OC)cccc1C(=O)NN(C(=O)c1cccc(F)c1)C(C)(C)C [RG-115515] |  |  |  | 1306 | 0.975 | 6.21 | 1996 | 420 |  |  |  |  |  | 
12 | CCc1c(OC)cccc1C(=O)NN(C(=O)c1cc(OC)c(OC)c(OC)c1)C(C)(C)C [RG-115329] |  |  |  | 259 | 0.892 | 5.59 | 5644 | 430 |  |  |  |  |  | 
13 | CCc1ccc(C(=O)NN(C(=O)c2cc(C)ccc2[N+](=O)[O-])C(C)(C)C)cc1 [RG-101398] |  |  |  | 1138 | 0.712 | 6.55 | 159 | 403 |  |  |  |  |  | 
14 | CCc1c(OC)cccc1C(=O)NN(C(=O)c1ccc2nc[nH]c2c1)C(C)(C)C [RG-115719, 3H-benzoimidazole-5-carboxylic acid N-tert-butyl-N′-(2-ethyl-3-methoxy-benzoyl)-hydrazide] |  |  |  |  |  |  |  |  | 1 | 271 |  |  |  | 
15 | CCc1c(OC)cccc1C(=O)NN(C(=O)c1cc(C)cc(/C=N/NC(N)=O)c1)C(C)(C)C [RG-115429, semicarbazide of N-(3-formyl-5-methyl-benzoyl)-N-tert-butyl-N′-(2-ethyl-3-methoxy-benzoyl) hydrazide] |  | 1.065 |  |  | 0.880 |  |  |  | 1840 | 1720 | 5.06 | 18 | 5.02 | 3
16 | COc1cccc(C(=O)NN(C(=O)c2cc(C)cc(C)c2)C(C)(C)C)c1CCl [RG-115490, 3,5-dimethyl-benzoic acid N-tert-butyl-N′-(2-chloromethyl-3-methoxy-benzoyl)-hydrazide] |  | 1.01 |  |  | 0.44 |  |  |  | 844 | 814 | < 4.30 | 2 | 5.20 | 123
17 | COc1cc(OC)cc(C(=O)N(NC(=O)c2cccc(C)c2C)C(C)(C)C)c1 [RG-100764] |  |  |  | 915 | 0.900 | 5.63 | 3814 | 369 |  |  |  |  |  | 
18 | CCc1c(OC)cccc1C(=O)NN(C(=O)c1cnccn1)C(C)(C)C [RG-115550, pyrazine-2-carboxylic acid N-tert-butyl-N′-(2-ethyl-3-methoxy-benzoyl)-hydrazide] |  |  |  |  |  |  |  |  |  | 21 |  | 1 |  | 
